In one data set the test system is Staphylococcus aureus. Put plainly: Antibacterial susceptibility testing: IC90 determination (broth microdilution, resazurin fluorescence). The class given is cell-based. To be noted: 90% inhibitory concentration for bacterial growth, Mueller Hinton broth, 35° C., 16-20 hours, strain not given. The procedure: Preparation of Bacterial Suspensions for Susceptibility Testing
The following bacteria were used: Staphylococcus aureus ATCC 29213, methicillin-resistant Staphylococcus aureus (MRSA) ATCC 700788 and Escherichia coli ATCC 35218. The bacteria used in this study were grown overnight in flasks containing 100 ml Mueller-Hinton broth (Difco cat. nr. 0757-17) in sterile de-ionized water, with shaking, at 37° C. Stocks were store at −70° C. until use.
Bacteria were incubated on a tryptic soy agar plate containing 5% sheep blood (Becton Dickinson cat. nr. 254053) for 18-24 hours at 35° C. in aerobic conditions (first passage). For the second passage, fresh Mueller-Hinton broth is inoculated with 5-10 colonies and grown overnight at 35° C. until turbidity (reaching log-phase) in aerobic conditions is reached. The bacterial suspension is then adjusted to 0.5 McFarland density and further diluted 1:100 in Mueller Hinton broth medium. This is used as inoculum.
Antibacterial Susceptibility Testing: IC90 Determination
MIC assays were performed by the broth microdilution method in a 96-well format (flat-bottom microtitre plates) with a final volume of 0.1 ml Mueller Hinton broth containing two-fold serial dilutions of compounds and inoculated with 5×10^5 CFU/ml of bacteria (standard inoculum size according to CLSI guidelines). Inhibitors are typically varied over the range of 63 to 0.49 μM. The final DMSO concentration in the assay was 1.25% (maximum tolerable DMSO concentration=6%). In the assays where the effect of human serum on the activity of the compounds against S. aureus was tested, human serum was added at a final concentration of 10%. The plates were incubated at 35° C. for 16-20 hours. At the end of incubation the bacterial growth was quantified fluorometrically. For this, resazurin was added to all wells and the plates were re-incubated. The incubation time is dependent on the type of bacteria. A change in color from blue to pink indicated the growth of bacteria. The fluorescence was read in computer-controlled fluorometer (Fluoroskan Ascent FL, Labsystems) at an excitation wavelength 540 nm and an emission wavelength of 590 nm. The % growth inhibition achieved by the compounds was calculated according to standard methods. The IC90 (expressed in μg/ml) was defined as the 90% inhibitory concentration for bacterial growth. A panel of reference compounds were simultaneously tested for QC approval.
(In general: Broth dilution looks for growth in wells or tubes with falling amounts of substance.)

Another data set is described as follows: Cytotoxicity MTT assay. To be noted: human, HelaM cells, concentration that causes 50% reduction in cell viability. The class given is cell-based. The procedure: Cytotoxicity of the compounds was evaluated using the MTT assay. Human HelaM cells grown in 96-well plates were exposed to serial dilutions of the tested compounds (final volume of 0.2 ml) and incubated for 72 hours at 37° C. and 5% CO2 Inhibitors are typically varied over the range of 25 to 0.8 μM. The final DMSO concentration in the assay is 0.5%. MTT (3-(4,5-Dimethylthiazol-2-yl)-2,5-diphenyltetrazolium bromide, a tetrazole) was added and reduced to purple formazan only in living cells. Solubilization of the formazan crystals was achieved by adding 100 μl 2-propanol. Cell viability was determined by measuring the absorbance of the reduced formazan, giving a purple color, at 540 nm and 690 nm. The absorbance measured at 690 nm was automatically subtracted from the absorbance at 540 nm, to eliminate the effects of non-specific absorption. The percent cytotoxicity achieved by the compounds was calculated according to standard methods. Cytotoxicity is reported as CC50, the concentration that causes a 50% reduction in cell viability.
For orientation: Formazan colour is commonly taken as a measure of viable cells.

Values after ≈ are worked out from the molar mass of the structure shown. Some results are limits rather than exact numbers.

`COc1cccc(-c2cnc(-c3ccncc3)nc2C2CCN(Cc3ccc(F)cc3)CC2)c1` [Compound 29]: the melting point is 152 °C. The 90% effect level with Staphylococcus aureus (IC90) was put at 3.45 µg/mL (≈ 7.59 µM). In “Cytotoxicity MTT assay”, this compound gave a CC50 at 72 h of 8.5 µg/mL (≈ 18.7 µM).
On to `COc1cccc(-c2cnc(-c3ccncc3)nc2NC2CCN(CC(C)(C)C)CC2)c1` [Compound 30], for which the melting point was 137 to 138 °C. In addition, the IC90 in the data set with Staphylococcus aureus was 5.19 µg/mL (≈ 12 µM). Besides, it took 8.8 µg/mL (≈ 20.4 µM) to reach half-maximal cytotoxicity in the data set “Cytotoxicity MTT assay” (CC50 at 72 h).
The like results for `COc1cccc(-c2cnc(-c3ccncc3)nc2C2CCN(Cc3cccc(C#N)c3)CC2)c1` [Compound 31] were, in that order, 140 °C, 7.32 µg/mL (≈ 15.9 µM) and 4.2 µg/mL (≈ 9.1 µM).
For `COc1cccc(-c2cnc(-c3ccncc3)nc2C2CCN(Cc3ccc(F)cc3F)CC2)c1` [Compound 32] the same measures were 138 °C, 3.27 µg/mL (≈ 6.92 µM) and 5.5 µg/mL (≈ 11.6 µM).
In turn, `COc1cccc(-c2cnc(-c3ccncc3)nc2C2CCN(Cc3cccc(C)c3)CC2)c1` [Compound 33] displayed a melting point of 160 °C. Further, in the data set on Staphylococcus aureus, the IC90 is 13.2 µg/mL (≈ 29.2 µM). For the same compound, the midpoint of cytotoxicity in “Cytotoxicity MTT assay”, the CC50 at 72 h, lay at 7.6 µg/mL (≈ 16.9 µM).
In turn, `COc1cccc(-c2cnc(-c3ccncc3)nc2C2CCN(Cc3ccc(C#N)cc3)CC2)c1` [Compound 34] returned a melting point of 168 °C. Moreover, the 90% effect level in the data set with Staphylococcus aureus (IC90) was put at 6.99 µg/mL (≈ 15.1 µM). This compound had a CC50 at 72 h in “Cytotoxicity MTT assay” of 8.7 µg/mL (≈ 18.8 µM).
The compound `COc1cccc(-c2cnc(-c3ccncc3)nc2C2CCN(Cc3ccc(C)cc3)CC2)c1` [Compound 35] returned a melting point of 141 °C. This compound also had an IC90 in the data set with Staphylococcus aureus of 13.3 µg/mL (≈ 29.5 µM). Besides, the midpoint of cytotoxicity in the data set “Cytotoxicity MTT assay”, the CC50 at 72 h, lay at 7.7 µg/mL (≈ 17.1 µM).
Turning to `COc1ccc(-c2cnc(-c3ccncc3)nc2C2CCN(CC(C)(C)C)CC2)cc1` [Compound 36], the melting point lay within 154 to 156 °C. The IC90 in the data set with Staphylococcus aureus was 2.98 µg/mL (≈ 7.15 µM). Also, the CC50 at 72 h in the data set “Cytotoxicity MTT assay” is greater than 10.5 µg/mL.
The compound `CN(C)c1cccc(-c2cnc(-c3ccncc3)nc2C2CCN(CC(C)(C)C)CC2)c1` [Compound 37] had a melting point of 140 to 142 °C. In the data set with Staphylococcus aureus, this compound showed an IC90 of 3.04 µg/mL (≈ 7.08 µM). In “Cytotoxicity MTT assay”, this compound came in with a CC50 at 72 h of 9.2 µg/mL (≈ 21.4 µM).
Turning to `Cc1ccc(-c2cnc(-c3ccncc3)nc2C2CCN(CC(C)(C)C)CC2)cc1` [Compound 38], the melting point fell in the range of 170 to 171 °C. Moreover, the IC90 in the data set with Staphylococcus aureus was found to be 5.04 µg/mL (≈ 12.6 µM). Also, in “Cytotoxicity MTT assay”, the CC50 at 72 h is greater than 4 µg/mL.
For `CC(C)(C)CN1CCC(c2nc(-c3ccncc3)ncc2-c2cccc(Cl)c2)CC1` [Compound 39] the same measures were 119 to 121 °C, 0.76 µg/mL (≈ 1.81 µM) and 7.3 µg/mL (≈ 17.3 µM).
The like results for `CC(C)(C)CN1CCC(c2nc(-c3ccncc3)ncc2-c2cccc(C(F)(F)F)c2)CC1` [Compound 40] were, in that order, 112 to 114 °C, 0.52 µg/mL (≈ 1.14 µM) and 7 µg/mL (≈ 15.4 µM).
Compound `COc1cccc(-c2cnc(-c3ccncc3)nc2C2CCN(Cc3ccccc3F)CC2)c1` [Compound 41] came in with a melting point of 139 °C. Also, the IC90 in the data set on Staphylococcus aureus was 8.66 µg/mL (≈ 19.1 µM). Further, the CC50 at 72 h in “Cytotoxicity MTT assay” worked out at 7.7 µg/mL (≈ 16.9 µM).
The like results for `COc1cccc(-c2cnc(-c3ccncc3)nc2C2CCN(Cc3ccccc3C#N)CC2)c1` [Compound 42] were, in that order, 158 °C, 6.75 µg/mL (≈ 14.6 µM) and 5.1 µg/mL (≈ 11 µM).
The like results for `COc1cccc(-c2cnc(-c3ccncc3)nc2C2CCN(Cc3ccc(F)c(F)c3)CC2)c1` [Compound 43] were, in that order, 158 °C, 2.24 µg/mL (≈ 4.74 µM) and 6.2 µg/mL (≈ 13.1 µM).
For `COc1cccc(-c2cnc(-c3ccncc3)nc2C2CCN(Cc3ccc(Cl)cc3)CC2)c1` [Compound 44] the same measures were 131 °C, 2.23 µg/mL (≈ 4.73 µM) and 7 µg/mL (≈ 14.9 µM).
On to `COc1cccc(-c2cnc(-c3ccncc3)nc2C2CCN(Cc3cccc(Cl)c3)CC2)c1` [Compound 45], for which the melting point is 133 °C. The IC90 in the data set on Staphylococcus aureus amounted to 3.49 µg/mL (≈ 7.41 µM). For the same compound, the midpoint of cytotoxicity in the data set “Cytotoxicity MTT assay”, the CC50 at 72 h, lay at 4.9 µg/mL (≈ 10.4 µM).
The like results for `COc1cccc(-c2cnc(-c3ccncc3)nc2C2CCN(Cc3ccccc3C(F)(F)F)CC2)c1` [Compound 46] were, in that order, 144 °C, 4.1 µg/mL (≈ 8.13 µM) and 4.2 µg/mL (≈ 8.32 µM).
The like results for `COc1cccc(-c2cnc(-c3ccncc3)nc2C2CCN(Cc3c(F)cccc3F)CC2)c1` [Compound 47] were, in that order, 184 °C, 1.74 µg/mL (≈ 3.68 µM) and 2.1 µg/mL (≈ 4.44 µM).
The like results for `COc1cccc(-c2cnc(-c3ccncc3)nc2C2CCN(Cc3cc(F)cc(F)c3)CC2)c1` [Compound 48] were, in that order, 181 °C, 3.16 µg/mL (≈ 6.69 µM) and 2.2 µg/mL (≈ 4.66 µM).
Compound `C#CCN1CCC(c2nc(-c3ccncc3)ncc2-c2cccc(OC)c2)CC1` [Compound 49] came in with a melting point of 160 °C. This compound also displayed an IC90 in the data set on Staphylococcus aureus of 12.2 µg/mL (≈ 31.6 µM). The cytotoxic concentration (CC50) at 72 h in the data set “Cytotoxicity MTT assay” is greater than 9.7 µg/mL.
For `Cc1ccccc1-c1cnc(-c2ccncc2)nc1C1CCN(CC(C)(C)C)CC1` [Compound 50] the same measures were 208 °C, 9.61 µg/mL (≈ 24 µM) and greater than 4 µg/mL.
`CC(C)(C)CN1CCC(c2nc(-c3ccncc3)ncc2-c2cccc(C#N)c2)CC1` [Compound 54] showed a melting point of 155 °C. In addition, in the data set with Staphylococcus aureus, the 90% effect level (IC90) was put at 1.29 µg/mL (≈ 3.13 µM). Further, in the data set “Cytotoxicity MTT assay”, the CC50 at 72 h is greater than 10.3 µg/mL.
The like results for `COc1cccc(-c2cnc(-c3ccncc3)nc2C2CCN(CC(F)F)CC2)c1` [Compound 56] were, in that order, 123 °C, 1.49 µg/mL (≈ 3.63 µM) and greater than 10.3 µg/mL.
For `COc1cccc(-c2cnc(-c3ccncc3)nc2C2CCN(CC(C)(C)C#N)CC2)c1` [Compound 57] the same measures were 117 °C, 0.39 µg/mL (≈ 0.912 µM) and 7.3 µg/mL (≈ 17.1 µM).
For `N#Cc1cccc(-c2cnc(-c3ccncc3)nc2C2CCN(CC(F)(F)F)CC2)c1` [Compound 58] the same measures were 168 to 172 °C, 0.69 µg/mL (≈ 1.63 µM) and greater than 10.6 µg/mL.
As to `N#Cc1cccc(-c2cnc(-c3ccncc3)nc2C2CCCN(CC(F)(F)F)C2)c1` (stereo not drawn) [Compound 59], the melting point lay in the range of 163 to 164 °C. The compound further came in with an IC90 in the data set with Staphylococcus aureus greater than 26.7 µg/mL. The same compound returned a CC50 at 72 h in the data set “Cytotoxicity MTT assay” greater than 10.6 µg/mL.
The like results for `N#Cc1cccc(-c2cnc(-c3cccnc3)nc2C2CCCN(CC(F)(F)F)C2)c1` (stereo not drawn) [Compound 60] were, in that order, 52 to 92 °C, greater than 26.7 µg/mL and greater than 10.6 µg/mL.
For `CC(C)(C)CN1CCCC(c2nc(-c3cccnc3)ncc2-c2cccc(C#N)c2)C1` (stereo not drawn) [Compound 62] the same measures were 57 to 113 °C, greater than 25.9 µg/mL and greater than 10.3 µg/mL.
Compound `CC(C)(C)CN1CCC(c2nc(C3CC3)ncc2-c2cccc(C#N)c2)CC1` [Compound 63] displayed a melting point of 125 to 126 °C. In addition, it took 2.74 µg/mL (≈ 7.32 µM) to reach the 90% level in the data set on Staphylococcus aureus (IC90). For the same compound, the CC50 at 72 h in the data set “Cytotoxicity MTT assay” was greater than 9.4 µg/mL.
For `CC(C)(C)CN1CCC(c2nc(C(F)(F)F)ncc2-c2cccc(C#N)c2)CC1` [Compound 64] the same measures were 114 to 116 °C, 1.46 µg/mL (≈ 3.63 µM) and greater than 10.1 µg/mL.
For `CC(C)(C)CN1CCC(c2nc(-c3ccc(C#N)cc3)ncc2-c2cccc(C#N)c2)CC1` [Compound 65] the same measures were 247 to 249 °C, 0.13 µg/mL (≈ 0.298 µM) and greater than 4.4 µg/mL.
For `CC(C)(C)CN1CCC(c2nc(-c3ccc(F)cc3)ncc2-c2cccc(C#N)c2)CC1` [Compound 66] the same measures were 154 to 158 °C, less than 0.21 µg/mL and 8.8 µg/mL (≈ 20.5 µM).
`COc1ccc(-c2ncc(-c3cccc(C#N)c3)c(C3CCN(CC(C)(C)C)CC3)n2)cn1` [Compound 67] came in with a melting point of 144 to 145 °C. The IC90 in the data set with Staphylococcus aureus is 0.81 µg/mL (≈ 1.83 µM). The compound further registered a CC50 at 72 h in the data set “Cytotoxicity MTT assay” greater than 11.1 µg/mL.

What is called IC90 is the concentration needed for an effect of 90%. High values mean a need for much substance, low ones an effect from little substance. By CC50 is commonly meant the concentration that lowers cell viability or growth by half. One may read the melting point as the temperature, or range, at which the solid turns liquid.

For the origin of these results see US9725432B2, “Pyrimidine derivatives for the treatment of bacterial diseases” (JANSSEN R&D IRELAND, priority 2012, dated 2017).
